Test [1] addresses T1, CAP channel (Rattus norvegicus, UniProt O35433).
T1 construct: administered at an amount of 10˜20 μM to the membrane patches of cultured sensory neurons; endogenous in cells; host or cells: cultured sensory neurons (inside-out membrane patches)
Nature of the test: single channel current recording with patch clamp technique, inside-out membrane patches of cultured sensory neurons. It counts as cell-based. The settings on record: for Hill coefficient: concentration-response curve of channel activation; for amplitude of the single channel currents: membrane potential of 60 mV; for relative agonistic potency (Po as percentage of Po at 0.5 μM CAP): metabolites at 10~20 μM; for generation of single channel currents (activation of CAP channel): applied to intracellular side of membrane patch, CAP 0.5 μM, 12-HPETE 2 μM. The method, then: In the present invention, use was made of a single channel recording method with the aid of a patch clamp technique (Hamill et al., Pfl gers Arch 391:85-100, 1981) in order to know whether lipoxygenase metabolites activate CAP channels or receptors or not. […] Because the tests are performed in isolated membrane patches without the mediation of intracellular second messengers, lipoxygenase metabolites are believed to exert a direct action on the CAP channel.
An examination was made on the efficiency with which the various lipoxygenase metabolites activate CAP channels. To this end, a patch clamp technique was used to record the single channel current generated in the CAP channel to which various lipoxygenase metabolites were applied to measure the open probability (Po) of the CAP channel. To compare the relative potency of each metabolite, the effects of the lipoxygenase metabolites on CAP channels were measured with a reference to 0.5 μM CAP.
A single channel current recording method using a patch clamp technique (Hamill et al., supra; Oh et al., 1996a) was used to know whether the lipoxygenase metabolites directly activate the CAP channel.
Because the binding site of CAP was located on the intracellular side of the channel (Oh et al., 1996b), the metabolites were applied to the intracellular sides of cell membrane patches.
In order to compare the agonistic potencies of the various metabolites synthesized by the action of various lipoxygenases, one patch was administered with 0.5 μM of CAP and then, with various lipoxygenase metabolites. At each experiment, the open probabilities (Po) of the channel attributable to the metabolites were recorded and calculated as a percentage to the open probability obtained at 0.5 μM CAP.
All of the lipoxygenase metabolites tested were administered at an amount of 10˜20 μM to the membrane patches of cultured sensory neurons. The relative potency of the metabolites in activating the channel was depicted in FIG. 7. As apparent from this histogram, almost all of the lipoxygenase metabolites, if different in agonistic potency, activate the CAP channel.
12-HPETE was administered at various concentrations from 0.25 to 20 μM to the cell membrane patches of sensory nerve cells, in order to plot a concentration-response curve. As a result, FIG. 8a was obtained. […] Returning now to FIG. 8a, the channel activation currents obtained at each 12-HPETE concentration were calculated as relative degrees to the channel activation current obtained at 20 μM of 12-HEPETE. The relative channel degrees were plotted against the concentrations of […] 12-HPETE and the resulting plot followed the Hill equation.
(In general: The patch-clamp technique gives a direct electrical read-out from membranes.)

For test [2], the system named is sensory nerve fibers (c-fibers) of the skin. As to the kind of experiment: skin-nerve preparation, action potentials of cutaneous pain nerve c-fibers. Also on record: species or system rats. The method, then:
To recognize whether the excitation of BK on nerve cells is accomplished via the arachidonic acid-lipoxygenase-CAP pathway, in vivo, a measurement was made on the action potentials in the sensory nerve fibers of the rats, as shown in FIGS. 13a and 13b. particularly, pain nerves which exist in the skin were isolated, together with a overlapping area of the skin, and the action potentials were measured from the nerve filaments using skin-nerve preparation (Reeh, 1998; Steen et al., 1992, 1995) as schematically illustrated in FIG. 13a. While unit action potentials measured at the sensory nerve fibers isolated from the skin, frequencies of the action potentials induced by the administration of BK were recorded. An increase in frequency of the action potentials means excitation of the sensory nerves.
The transmission speed of nerve signals were measured and only c-fibers (non-myelinated sensory nerve fibers) were used in the BK response experiment. The reason why c-fibers are used only is that they consist mainly of pain nerve cells (Willis and Coggeshall, 1991; Yaksh, 1986).
With reference to FIG. 13b, there are illustrated the action potential behaviors of the cutaneous pain nerve in response to agonist and antagonist samples. […] In order to recognize whether the nerve excitation of BK was attributed to the opening of CAP channels, CZP was administered at a dose of 10 μM, together with BK, to the skin. […] An experiment in which BK was administered alone or in combination with CZP to the skin, was repeated 20 times with the aim of testing the influence which BK and a combination of BK and CZP had on the activation of nerve cells, and the results are summarized as shown in FIG. 13c.
When the sensory nerve fibers were excited in response to BK, inhibitors against the enzymes required for the arachidonic acid-lipoxygenase-CAP receptor pathway were used in order to identify whether the response passed through the pathway. In the histogram of FIG. 14, the bar length of each inhibitor represents % activation relative to the activation effect obtained when BK was used alone in absence of any inhibitor. For example, CZP, if added along with BK, suppressed the activation response to BK by approximately […].

The test system of test [3] is cultured sensory nerve cells. Nature of the test: whole-cell currents in cultured sensory nerve cells in response to BK. The format is cell-based. The settings on record: CZP 10 μM; 5 μM of BK. An excerpt:
When taking various experimental results previously obtained into account, it was inferred that BK has a possibility to open CAP channels through the arachidonic acid-lipoxygenase pathway. To confirm this inference, an examination was made regarding whether the currents generated in cultured sensory nerve sells in response to BK were diminished by CZP or other lipoxygenase inhibitors. If BK made CAP channel open via the arachidonic acid-lipoxygenase pathway, the current response to BK must be reduced by CZP. However, rarely did the cultured cells respond to BK.

Test [4] concerns the target T1, CAP channel. Nature of the test: single channel current recording with patch clamp technique, inside-out membrane patches of cultured sensory neurons. The format is cell-based.

SMILES strings stand for the structures. “Also recorded” adds a separate entry of the source.

T1 sequence (O35433 whole entry): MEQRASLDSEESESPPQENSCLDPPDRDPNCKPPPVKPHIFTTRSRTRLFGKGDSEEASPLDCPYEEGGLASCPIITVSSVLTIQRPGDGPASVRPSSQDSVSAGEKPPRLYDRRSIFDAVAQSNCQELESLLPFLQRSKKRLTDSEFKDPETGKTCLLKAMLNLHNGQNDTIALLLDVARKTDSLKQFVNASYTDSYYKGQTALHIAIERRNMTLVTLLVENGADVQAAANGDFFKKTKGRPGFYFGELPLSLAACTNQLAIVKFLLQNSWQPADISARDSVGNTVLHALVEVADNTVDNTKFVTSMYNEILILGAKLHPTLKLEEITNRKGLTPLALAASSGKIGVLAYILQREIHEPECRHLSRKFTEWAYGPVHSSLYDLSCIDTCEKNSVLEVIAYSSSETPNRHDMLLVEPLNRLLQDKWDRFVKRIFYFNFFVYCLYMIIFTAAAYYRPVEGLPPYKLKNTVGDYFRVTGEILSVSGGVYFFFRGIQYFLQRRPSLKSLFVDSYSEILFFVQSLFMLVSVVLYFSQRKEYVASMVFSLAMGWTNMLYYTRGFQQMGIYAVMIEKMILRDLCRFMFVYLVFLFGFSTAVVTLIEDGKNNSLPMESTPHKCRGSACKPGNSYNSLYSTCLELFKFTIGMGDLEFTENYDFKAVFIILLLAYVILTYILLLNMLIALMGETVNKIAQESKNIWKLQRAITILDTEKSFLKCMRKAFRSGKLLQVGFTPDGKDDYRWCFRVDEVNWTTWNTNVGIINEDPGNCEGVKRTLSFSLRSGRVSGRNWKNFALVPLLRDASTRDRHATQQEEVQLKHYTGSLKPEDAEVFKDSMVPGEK

A word on the Hill coefficient: it is a measure of the steepness of the concentration-response curve. `CCCCC/C=C\CC(/C=C/C=C\C/C=C\CCCC(=O)O)OO` (centres unmarked) [12-HPETE, 12-hydroperoxyeicosatetraenoic acid]: the “patches in which activation of CAP channels was detected” value in test [1] (12-HPETE 2-20 μM, of the 97 patch samples tested) amounted to 88 patches. In test [1] (12-HPETE alone, increased from 0.0, n=4), the “Po channel open probability” value is 0.019±0.0002. In addition, the reversal potential in test [1] (bi-ionic system 140 mM Na+ / 140 mM K+, 2~10 μM 12-HPETE) is reported as −1.71±0.49 mV. For the same compound, the “permeability ratio of K+/Na+ (PK/PNa)” value in test [1] (calculated from bi-ionic system experiment) is recorded as 1.1. In test [1], the Hill coefficient amounted to 2.4, the “amplitude of the single channel currents” value is reported as 2.68±0.012 pA and the “relative agonistic potency (Po as percentage of Po at 0.5 μM CAP)” value is “most potent endogenous agonist; also recorded: highest agonistic potency”.

Take `COc1cc(CNC(=O)CCCC/C=C/C(C)C)ccc1O` [CAP, capsaicin]: the “action potentials of the nerve fibers (excitation)” value in test [2] (administered to skin patch, BK 1 μM) is given as “largely increased action potentials”. Moreover, in test [1], the “generation of single channel currents (activation of CAP channel)” value (shortened to “generation of single channel currents”) is on record as “single channel current which was greatly generated”, the Hill coefficient came out at 2.4 and the “amplitude of the single channel currents” value worked out at 2.72±0.06 pA.

Consider `Oc1cc2c(cc1O)CN(C(=S)NCCc1ccc(Cl)cc1)CCC2` [CZP, capsazepine], for which the “effect on response of skin nerve to BK” value in test [2] (CZP 10 μM together with BK) was “Great suppression”. Besides, the “effect on single channel currents activated by 12-HPETE” value in test [1] (10 μM of CZP present) is given as “single channel currents were not observed”. The “Po channel open probability” value in test [1] (co-existence of 10 μM of CZP and 10 μM of 12-HPETE) is given as 0.001±0.000002. Besides, the “effect on current generated by BK” value in test [3] is “reduced the current”.

Consider `COc1ccc2c(c1)c(CC(=O)O)c(C)n2C(=O)c1ccc(Cl)cc1` [INDO, indomethacin], for which the “effect on the BK response” value in test [2] (2 μM indomethacin) was “failed to inhibit the BK response”.

Consider `CC(Cc1ccc(O)c(O)c1)C(C)Cc1ccc(O)c(O)c1` (centres unmarked) [NDGA, nordihydroguaiaretic acid], for which, in test [2] (50 μM of NDGA, relative to BK alone), the “lowering of the activation of BK” value stood at 70%. Further, in test [4] (NDGA administered together with arachidonic acid), the “effect on single channel current generated by arachidonic acid” value is recorded as “reversibly controlled depending on the presence or absence of NDGA”.

On to `CCCCC[C@H](O)/C=C/[C@H]1C(=O)C[C@H](O)[C@@H]1C/C=C\CCCC(=O)O` [PGD2], for which the “generation of single channel currents” value in test [1] was “no channel currents were generated”.

Consider `CCCCC[C@H](O)/C=C/[C@H]1[C@H](O)CC(=O)[C@@H]1C/C=C\CCCC(=O)O` [PGE2, prostaglandin E2], for which the “generation of single channel currents” value in test [1] is recorded as “no channel currents were generated”.

As for `CCCCC[C@H](O)/C=C/[C@@H]1[C@H]2C/C(=C/CCCC(=O)O)O[C@H]2C[C@H]1O` [PGI2], in test [1], the “generation of single channel currents” value was “no channel currents were generated”.

Consider `CCN(CC)CCCC(C)Nc1c2ccc(Cl)cc2nc2ccc(OC)cc12` (centres unmarked) [QN, Quinacrine], for which, in test [2] (relative to BK alone), the “suppressive effect on the activation response to BK” value worked out at 70%.

For `CCCCC/C=C\C/C=C\C/C=C\C/C=C\CCCC(=O)O` [arachidonic acid], in test [4] (arachidonic acid 10 to 50 μM), the “experiments in which channel currents were weakly induced” value was found to be 54% and the “experiments in which the CAP channels were not activated” value was “approximately 46%”. The “trials in which the CAP channels were not activated” value in test [4] (arachidonic acid 10 to 50 μM, of 69 trials) is reported as 32 trials.

In the case of `CCCCC/C=C\C[C@@H](O)/C=C/C=C/C=C\[C@@H](O)CCCC(=O)O` [leukotriene B4], the “relative agonistic potency (Po as percentage of Po at 0.5 μM CAP)” value in test [1] is reported as “poor in the activation potency”.
